No end group written: not given here. *: point of attachment. Palmitoyl = CCCCCCCCCCCCCCCC(=O)*; Oleyl = CCCCCCCC/C=C\CCCCCCCC*
Legend:
Type in all cases: cell-based, human
collagen = assay: Influence of palmitoyl group: collagen synthesis by RGD and Pal-RGD peptides; conditions: FIG. 10
Protocol: Then, the treated cells were sonicated in the lysis buffer (150 mM NaCl, 1% Triton X-100, 10 mM Tris, […], pH 7.4). Thereafter, supernatant was isolated through centrifugation, and quantification was performed through Bradford assay. The same amount of a protein was mixed in a 5× sample buffer, and the mixture was heated for 5 minutes at 95° C. The resultant was electrophoresed on 6-15% concentration gradient SDS-polyacrylamide gel electrophoresis (SDS-PAGE), and then adsorbed to a nitrocellulose membrane. An anti-type I collagen primary antibody (Rockland, USA) and anti-actin primary antibody (Santa Cruz, USA) were diluted in TBST buffer (Tris buffered saline with 0.05% Tween 20, pH 7.6) including 5% skimmed milk and reacted for 16 hours. Then, the resultant was washed with TBST for 10 minutes 6 times. Thereafter, the membrane was treated with an anti-mouse rabbit peroxidase-conjugated secondary antibody (KPL, USA) for reaction for one hour at room temperature, and washed again with TBST 6 times for 10 minutes followed by development with the enhanced chemiluminescent (ECL) solution (Amersham, USA) for evaluation. In addition, the western blot image was quantitatively compared with densitometric analysis by using image J program (Ver 1.38, //rsbweb.nih.gov/ij/index.html). […]

[1] = tested on: collagen I expression induced by YIGSR peptide; assay: YIGSR peptide-induced collagen I expression under FAK and MEK inhibitors, western blot; conditions: Hs27 cells, 1 μM inhibitor with 1 μM YIGSR peptide, 24 hours
Protocol: To evaluate whether collagen I expression induced by YIGSR peptide according to one embodiment of the present invention is mediated by FAK and MAPK or not, FAK and MEK inhibitors were used.
Hs27 cells of Example 3 were cultured in a 24-well plate provided that the cells were cultured in a serum-free state for 24 hours. Then, the cells were treated with 1 μM of the FAK-specific inhibitor, PF573228 (Tocris Bioscience, United Kingdom) for 24 hours.

ERK = ERK phosphorylation by Pal-YIGSR peptide, immunoblotting in Hs27 skin fibroblasts; conditions: FIG. 8
Protocol: Hs27 skin fibroblasts, which are under culture, were treated with the peptide derivatives prepared in Examples 1 and 2, and Comparative Example 2, and an amount of expressed type I collagen in the cells were measured by an immunoblotting method. The Hs27 skin fibroblasts were cultured by using DMEM medium, (Lonza, USA), to which 10% FBS was added (Lonza, USA), under the condition of 95% of humidity, 5% CO2, and 37° C. Hs27 skin fibroblasts were treated with each concentration of the peptide (0, 2, 25, 50 and 100 μM) for 24 hours or 100 μM of the peptide for each period of time (0, 0.5, 6, 12 and 24 hours). Then, the treated cells were sonicated in the lysis buffer (150 mM NaCl, 1% Triton X-100, 10 mM Tris, 1 mM EDTA, pH 7.4). Thereafter, supernatant was isolated through centrifugation, and quantification was performed through Bradford assay. The same amount of a protein was mixed in a 5× sample buffer and the mixture was heated for 5 minutes at 95° C. The resultant was electrophoresed on 6-15% concentration gradient SDS-Polyacrylamide gel electrophoresis (SDS-PAGE) and then adsorbed to a nitrocellulose membrane. […]

type I collagen = assay: Type I collagen synthesis by Pal-YIGSR peptide, immunoblotting in Hs27 skin fibroblasts; conditions: for effect compared with the original YIGSR peptide: collagen I production, summary statement b41
Protocol: Hs27 skin fibroblasts, which are under culture, were treated with the peptide derivatives prepared in Examples 1 and 2, and Comparative Example 2, and an amount of expressed type I collagen in the cells were measured by an immunoblotting method. The Hs27 skin fibroblasts were cultured by using DMEM medium, (Lonza, USA), to which 10% FBS was added (Lonza, USA), under the condition of 95% of humidity, 5% CO2, and 37° C. Hs27 skin fibroblasts were treated with each concentration of the peptide (0, 2, 25, 50 and 100 μM) for 24 hours or 100 μM of the peptide for each period of time (0, 0.5, 6, 12 and 24 hours). Then, the treated cells were sonicated in the lysis buffer (150 mM NaCl, 1% Triton X-100, 10 mM Tris, 1 mM EDTA, pH 7.4). Thereafter, supernatant was isolated through centrifugation, and quantification was performed through Bradford assay. The same amount of a protein was mixed in a 5× sample buffer and the mixture was heated for 5 minutes at 95° C. The resultant was electrophoresed on 6-15% concentration gradient SDS-Polyacrylamide gel electrophoresis (SDS-PAGE) and then adsorbed to a nitrocellulose membrane. Anti-type I collagen primary antibody (Rockland, USA), anti-phospho-ERK primary antibody (Cell signaling, USA), and anti-actin primary antibody (Santa Cruz, USA) were diluted in TBST buffer (Tris buffered saline with 0.05% Tween 20, pH 7.6) including 5% skimmed milk and reacted for 16 hours. Then, the resultant was washed with TBST for 10 minutes 6 times. Then, the membrane was treated with anti-mouse rabbit peroxidase-conjugated secondary antibody (KPL, USA) for reaction for one hour at room temperature, and washed again with TBST 6 times for 10 minutes followed by development with the enhanced chemiluminescent (ECL) solution (Amersham, USA) for evaluation.

Hs27 skin fibroblasts = assay: Cell growth by crystal violet assay; conditions: 72 hours
Protocol: The Hs27 skin fibroblasts were seeded on a 24-well culture plate (40,000 cells per each), and cultured under 5% CO2, and 37° C. for 24 hours to allow cells to be attached to a bottom of the culture plate. Next day, a medium was changed to a medium including FBS. Then, cells were cultured again for 24 hours and treated with the peptide derivatives of Examples 1 and 2, and Comparative Examples 1 and 2 followed by further culture of 72 hours. Then, cell growth was measured through crystal violet assay.
Specifically, the medium in each well was removed, and […] of 0.1% crystal violet solution was added to each well followed by 5 minutes of staining. Then, the crystal violet solution was removed, and wells were washed with deionized water four times until the well became transparent. When the washed distilled water became transparent, distilled water was removed. Then, 1 ml of 95% ethanol was added with stirring for 20 minutes to dissolve crystal violet from stained cells. […] of the solution was dispensed to a 96-well plate, and absorbance was measured at 590 nm by using ELISA reader. Then, relative cell growth was calculated by using, as a control, a group which was not treated with a material to be tested.

| Molecule | collagen synthesis degree versus control (collagen) | effect of inhibitor on collagen I expression induced by YIGSR peptide [1] | ERK phosphorylation induction (ERK) | effect compared with the original YIGSR peptide (type I collagen) | also measured |
| --- | --- | --- | --- | --- | --- |
| RGD [RGD peptide] | not significantly different from that of the control | – | – | – | – |
| COc1cccc(-c2cc(=O)c3ccccc3o2)c1N [PD98059] | – | remarkably inhibited | – | – | – |
| Pal-RGD [Pal-RGD peptide] | not significantly different from that of the control | – | – | – | – |
| Palmitoyl-YIGSR [Pal-YIGSR, peptide derivative in which a palmitoyl group is attached to an N-terminal of the YIGSR peptide] | – | – | observed | more potent effect than the YIGSR peptide | amount of synthesized collagen depending on concentration (type I collagen; 0, 2, 25, 50 and 100 μM, 24 hours): increased as concentration increased; amount of synthesized collagen depending on exposure time (type I collagen; 100 μM, 0, 0.5, 6, 12 and 24 hours): increased as exposure time increased; cell growth relative to untreated control (Hs27 skin fibroblasts; 100 μM): 13%; cell growth relative to untreated control (Hs27 skin fibroblasts; 500 μM): 23%; concentration range in which cell growth was shown (Hs27 skin fibroblasts): 0.5 to 50 µM |
| CS(=O)(=O)c1cccc(CNc2nc(Nc3ccc4c(c3)CCC(=O)N4)ncc2C(F)(F)F)c1 [PF573228] | – | remarkably repressed | – | – | – |
| Oleyl-YIGSR [YIGSR peptide having an N-terminal, to which an oleyl group is added instead of the palmitoyl group] | – | – | rarely affect ERK phosphorylation | no improved activity | degree of collagen synthesis compared with control and Pal-YIGSR (type I collagen; Hs27 skin fibroblasts, FIG. 7): no difference from the control |
